The target of assay [1] is T1, Dihydrofolate reductase (Candida albicans, UniProt P22906).
T1 sequence (P22906 whole entry): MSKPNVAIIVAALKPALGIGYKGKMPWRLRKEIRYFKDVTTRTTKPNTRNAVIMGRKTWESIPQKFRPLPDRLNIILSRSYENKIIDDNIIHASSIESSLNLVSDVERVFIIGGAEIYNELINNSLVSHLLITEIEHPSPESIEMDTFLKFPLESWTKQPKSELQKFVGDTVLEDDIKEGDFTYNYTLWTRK
Kind of assay: Inhibitory activity against Candida albicans Dihydrofolate Reductase (DHFR).

Assay [2] in a line: Selective ratio of Human / Candida albicans was determined.
The target of assay [3] is T2, Dihydrofolate reductase (Homo sapiens, UniProt P00374).
T2 sequence (P00374 whole entry): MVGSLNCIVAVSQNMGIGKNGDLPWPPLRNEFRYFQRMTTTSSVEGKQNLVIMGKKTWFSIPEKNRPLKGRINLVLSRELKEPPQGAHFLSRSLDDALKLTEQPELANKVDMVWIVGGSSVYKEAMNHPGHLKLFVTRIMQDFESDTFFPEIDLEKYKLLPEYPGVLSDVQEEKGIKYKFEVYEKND
Put plainly: Inhibitory activity against recombinant human dihydrofolate reductase.

One may read the IC50 as the concentration at which inhibition is half-maximal.

For `CCC(CC)n1ccc2c3c(N)nc(N)nc3ccc21`, the results for the IC50 at Dihydrofolate reductase [1] and at Dihydrofolate reductase [3] were 4 nM and 6.6 nM, respectively. The SI in assay [2] worked out at 1.7.

Values taken from ChEMBL document CHEMBL1134578, “X-Ray crystal structures of Candida albicans dihydrofolate reductase: high resolution ternary complexes in which the dihydronicotinamide moiety of NADPH is displaced by an inhibitor” (J Med Chem, 2001).
